Assay results from patent US10670605B2, “Cysteine reactive probes and uses thereof” (The Scripps Research Institute, priority 2015, dated 2020).

Legend:
Test in all cases: Competitive isoTOP-ABPP in situ (fragment-treated cells)
Format in all cases: cell-based
[1] = target: T1, cysteines in MDA-MB-231 and Ramos cells (Homo sapiens, UniProt Q9Y5Y2)
T1 sequence (Q9Y5Y2 1-271): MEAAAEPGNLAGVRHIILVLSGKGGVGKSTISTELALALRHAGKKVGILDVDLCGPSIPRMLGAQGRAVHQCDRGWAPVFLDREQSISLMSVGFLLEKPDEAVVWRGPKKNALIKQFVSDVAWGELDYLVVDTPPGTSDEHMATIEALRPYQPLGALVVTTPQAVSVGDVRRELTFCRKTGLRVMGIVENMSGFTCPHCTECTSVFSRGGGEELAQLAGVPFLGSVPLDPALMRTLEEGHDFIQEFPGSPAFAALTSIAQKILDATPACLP

[2] = target: cysteines in MDA-MB-231 and Ramos cells (Homo sapiens, UniProt P53634)
cysteines in MDA-MB-231 and Ramos cells (Homo sapiens, UniProt P53634), sequence (P53634 25-463): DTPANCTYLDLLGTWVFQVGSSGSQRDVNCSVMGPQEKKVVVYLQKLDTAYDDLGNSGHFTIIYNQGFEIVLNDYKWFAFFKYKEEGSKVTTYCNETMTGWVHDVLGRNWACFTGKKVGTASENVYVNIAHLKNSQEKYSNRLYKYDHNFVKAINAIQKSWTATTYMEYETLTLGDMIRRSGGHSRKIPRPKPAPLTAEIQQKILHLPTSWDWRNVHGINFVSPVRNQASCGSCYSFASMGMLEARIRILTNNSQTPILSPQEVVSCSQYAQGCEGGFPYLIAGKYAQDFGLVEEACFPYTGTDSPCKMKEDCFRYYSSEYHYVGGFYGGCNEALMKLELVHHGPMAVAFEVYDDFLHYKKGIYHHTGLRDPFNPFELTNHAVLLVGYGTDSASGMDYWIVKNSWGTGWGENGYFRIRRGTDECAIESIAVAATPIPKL

[3] = target: T2, cysteines in MDA-MB-231 and Ramos cells (Homo sapiens, UniProt Q15398)
T2 sequence (Q15398 1-846): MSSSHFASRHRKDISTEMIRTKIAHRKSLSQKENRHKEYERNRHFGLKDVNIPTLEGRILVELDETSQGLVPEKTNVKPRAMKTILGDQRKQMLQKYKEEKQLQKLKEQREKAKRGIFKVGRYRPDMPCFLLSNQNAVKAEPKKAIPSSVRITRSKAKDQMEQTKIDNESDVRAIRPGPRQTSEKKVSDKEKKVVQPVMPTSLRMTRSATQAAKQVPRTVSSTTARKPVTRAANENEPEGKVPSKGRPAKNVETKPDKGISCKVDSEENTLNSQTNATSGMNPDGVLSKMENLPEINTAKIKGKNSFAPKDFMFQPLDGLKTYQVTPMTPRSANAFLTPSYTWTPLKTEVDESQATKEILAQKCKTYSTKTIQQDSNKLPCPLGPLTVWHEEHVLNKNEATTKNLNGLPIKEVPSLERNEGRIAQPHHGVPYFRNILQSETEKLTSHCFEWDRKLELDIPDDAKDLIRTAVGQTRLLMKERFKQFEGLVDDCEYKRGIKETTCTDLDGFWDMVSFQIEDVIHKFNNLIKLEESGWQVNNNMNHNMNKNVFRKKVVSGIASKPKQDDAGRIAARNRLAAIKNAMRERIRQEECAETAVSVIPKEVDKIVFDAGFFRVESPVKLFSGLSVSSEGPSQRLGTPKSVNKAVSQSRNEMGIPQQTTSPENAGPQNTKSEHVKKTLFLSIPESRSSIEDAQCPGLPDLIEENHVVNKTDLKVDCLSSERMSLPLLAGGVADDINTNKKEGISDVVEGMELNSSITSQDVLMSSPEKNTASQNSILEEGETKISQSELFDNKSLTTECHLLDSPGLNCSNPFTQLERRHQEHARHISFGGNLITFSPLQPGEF

[4] = target: T3, cysteines in MDA-MB-231 and Ramos cells (Homo sapiens, UniProt Q8N1F7); conditions: 200 μM, insitu
T3 sequence (Q8N1F7 1-819): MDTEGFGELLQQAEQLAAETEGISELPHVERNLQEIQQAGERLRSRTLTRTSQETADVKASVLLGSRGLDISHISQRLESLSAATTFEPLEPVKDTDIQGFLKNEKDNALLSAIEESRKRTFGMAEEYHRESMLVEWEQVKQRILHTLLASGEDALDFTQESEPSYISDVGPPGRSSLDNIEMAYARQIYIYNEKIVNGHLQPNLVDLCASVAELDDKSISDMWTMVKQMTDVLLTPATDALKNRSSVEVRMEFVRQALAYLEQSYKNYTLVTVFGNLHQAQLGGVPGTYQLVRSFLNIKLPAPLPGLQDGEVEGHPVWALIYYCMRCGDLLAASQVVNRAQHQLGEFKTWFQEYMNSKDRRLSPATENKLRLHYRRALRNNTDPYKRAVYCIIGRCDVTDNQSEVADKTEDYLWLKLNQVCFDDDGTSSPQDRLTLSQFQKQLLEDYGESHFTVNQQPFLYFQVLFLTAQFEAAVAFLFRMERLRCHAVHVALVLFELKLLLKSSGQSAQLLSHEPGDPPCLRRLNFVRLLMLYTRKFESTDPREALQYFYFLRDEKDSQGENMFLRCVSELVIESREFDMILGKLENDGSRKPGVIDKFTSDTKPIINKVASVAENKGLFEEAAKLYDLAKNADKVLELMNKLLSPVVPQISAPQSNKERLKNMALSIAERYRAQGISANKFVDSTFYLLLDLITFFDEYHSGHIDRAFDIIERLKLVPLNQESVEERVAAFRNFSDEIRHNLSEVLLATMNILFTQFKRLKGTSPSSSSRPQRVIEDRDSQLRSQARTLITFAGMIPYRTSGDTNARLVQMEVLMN

[5] = target: T4, cysteines in MDA-MB-231 and Ramos cells (Homo sapiens, UniProt P19447)
T4 sequence (P19447 1-782): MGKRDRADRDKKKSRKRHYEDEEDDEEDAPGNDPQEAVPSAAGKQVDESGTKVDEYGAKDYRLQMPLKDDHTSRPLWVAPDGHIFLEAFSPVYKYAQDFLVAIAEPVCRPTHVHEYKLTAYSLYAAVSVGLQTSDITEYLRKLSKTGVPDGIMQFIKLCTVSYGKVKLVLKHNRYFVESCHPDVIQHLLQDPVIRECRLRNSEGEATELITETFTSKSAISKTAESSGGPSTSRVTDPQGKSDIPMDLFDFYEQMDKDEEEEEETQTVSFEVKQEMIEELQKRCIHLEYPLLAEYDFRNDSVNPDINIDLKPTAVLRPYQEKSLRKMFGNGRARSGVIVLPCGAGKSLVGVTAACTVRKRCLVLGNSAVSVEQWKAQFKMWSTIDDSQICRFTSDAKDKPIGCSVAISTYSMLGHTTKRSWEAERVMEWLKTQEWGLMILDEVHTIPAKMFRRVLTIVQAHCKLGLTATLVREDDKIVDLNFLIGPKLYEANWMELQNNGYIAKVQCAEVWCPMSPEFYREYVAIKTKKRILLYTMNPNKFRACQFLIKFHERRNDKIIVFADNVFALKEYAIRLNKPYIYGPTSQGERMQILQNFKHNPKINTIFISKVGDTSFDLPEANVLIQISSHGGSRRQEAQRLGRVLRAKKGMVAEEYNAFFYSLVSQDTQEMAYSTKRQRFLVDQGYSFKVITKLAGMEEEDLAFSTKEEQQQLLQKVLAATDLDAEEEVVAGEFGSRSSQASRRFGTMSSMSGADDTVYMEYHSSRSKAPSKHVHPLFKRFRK

[6] = target: cysteines in MDA-MB-231 and Ramos cells (Homo sapiens, UniProt Q8WWI1)
cysteines in MDA-MB-231 and Ramos cells (Homo sapiens, UniProt Q8WWI1), sequence (Q8WWI1 whole entry): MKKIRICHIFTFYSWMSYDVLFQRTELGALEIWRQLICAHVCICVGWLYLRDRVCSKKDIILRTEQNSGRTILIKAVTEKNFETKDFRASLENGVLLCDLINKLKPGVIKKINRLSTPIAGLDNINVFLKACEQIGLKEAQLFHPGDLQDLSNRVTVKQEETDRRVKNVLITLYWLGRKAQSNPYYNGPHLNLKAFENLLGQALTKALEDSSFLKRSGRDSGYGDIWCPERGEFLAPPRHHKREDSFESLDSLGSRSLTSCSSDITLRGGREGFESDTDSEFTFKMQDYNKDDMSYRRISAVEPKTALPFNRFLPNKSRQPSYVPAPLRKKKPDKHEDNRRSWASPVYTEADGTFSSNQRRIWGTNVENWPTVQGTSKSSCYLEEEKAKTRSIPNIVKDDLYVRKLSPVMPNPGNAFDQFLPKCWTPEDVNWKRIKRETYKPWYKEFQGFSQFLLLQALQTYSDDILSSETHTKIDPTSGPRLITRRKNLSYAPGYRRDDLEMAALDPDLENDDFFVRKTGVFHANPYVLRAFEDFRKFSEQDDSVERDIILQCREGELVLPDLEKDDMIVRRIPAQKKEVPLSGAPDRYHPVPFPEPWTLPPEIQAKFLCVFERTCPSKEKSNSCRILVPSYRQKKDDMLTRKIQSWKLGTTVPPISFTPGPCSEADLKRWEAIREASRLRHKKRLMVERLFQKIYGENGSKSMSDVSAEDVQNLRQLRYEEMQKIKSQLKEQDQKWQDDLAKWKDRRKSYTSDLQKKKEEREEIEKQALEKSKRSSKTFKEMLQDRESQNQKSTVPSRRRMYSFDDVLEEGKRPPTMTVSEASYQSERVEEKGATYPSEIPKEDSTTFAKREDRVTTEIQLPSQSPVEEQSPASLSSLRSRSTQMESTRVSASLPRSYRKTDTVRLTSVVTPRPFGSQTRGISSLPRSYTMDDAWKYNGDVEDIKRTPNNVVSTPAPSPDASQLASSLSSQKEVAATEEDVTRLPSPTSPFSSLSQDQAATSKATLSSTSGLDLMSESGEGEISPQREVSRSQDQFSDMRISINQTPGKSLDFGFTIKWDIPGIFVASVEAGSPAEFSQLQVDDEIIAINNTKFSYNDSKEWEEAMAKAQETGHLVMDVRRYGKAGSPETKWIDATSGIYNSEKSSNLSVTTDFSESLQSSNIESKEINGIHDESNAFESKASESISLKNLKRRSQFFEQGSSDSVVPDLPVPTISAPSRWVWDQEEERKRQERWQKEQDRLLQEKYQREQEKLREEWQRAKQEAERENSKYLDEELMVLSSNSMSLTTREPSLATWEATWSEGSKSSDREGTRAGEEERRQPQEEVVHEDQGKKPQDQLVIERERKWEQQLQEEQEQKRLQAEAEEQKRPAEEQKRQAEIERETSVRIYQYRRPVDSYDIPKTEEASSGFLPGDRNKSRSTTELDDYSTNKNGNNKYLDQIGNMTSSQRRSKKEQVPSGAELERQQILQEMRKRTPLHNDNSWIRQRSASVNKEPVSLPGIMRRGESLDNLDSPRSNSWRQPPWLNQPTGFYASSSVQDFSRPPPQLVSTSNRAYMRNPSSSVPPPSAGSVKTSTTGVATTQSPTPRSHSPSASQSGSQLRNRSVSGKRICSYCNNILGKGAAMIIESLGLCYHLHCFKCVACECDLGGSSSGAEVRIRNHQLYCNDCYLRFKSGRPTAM

`COc1ccc2c(c1)CCCN2C(=O)CCl` [compound 2] was tested, and the “isoTOP-ABPP reactivity Q9Y5Y2_C72 NUBP2” value ([1]; 200 μM, insitu, 231) was 5.3, the “isoTOP-ABPP reactivity P53634_C258 CTSC” value ([2]; 200 μM, insitu, 231) was 0.9 and the “isoTOP-ABPP reactivity Q15398_C129 DLGAP5” value ([3]; 200 μM, insitu, 231) was 20.0.
`COc1ccc(C2CC(c3cccs3)=NN2C(=O)CCl)cc1` (centres unmarked) [compound 4] was tested, and the “isoTOP-ABPP reactivity P53634_C258 CTSC” value ([2]; 100 μM in situ 231) was 1.2.
With `COc1cc2c(cc1OC)CN(C(=O)CCl)CC2` [compound 8] the “isoTOP-ABPP reactivity Q8N1F7_0522 NUP93” value [4]; 231 was 20.0 and the “isoTOP-ABPP reactivity P19447_C342 ERCC3” value ([5]; 200 μM, insitu, 231) was 12.4.
In the case of `O=C(CCl)N1CCC(Cc2ccccc2)CC1` [compound 9], the “isoTOP-ABPP reactivity Q9Y5Y2_C72 NUBP2” value ([1]; 200 μM, insitu, 231) was 4.0.
With `O=C(CCl)N1CCN(S(=O)(=O)c2ccccc2F)CC1` [compound 10] the “isoTOP-ABPP ratio, cysteine Q9Y5Y2_C72” value ([1]; 200 μM, insitu, 231) was 1.3, the “isoTOP-ABPP ratio Q8WWI1_C228” value ([6]; 200 μM, insitu, 231) was 17.2 and the “isoTOP-ABPP ratio, cysteine P53634_C258” value ([2]; 200 μM, insitu, 231) was 5.5. For the same molecule, the “isoTOP-ABPP ratio P19447_C342” value ([5]; 200 μM, insitu, 231) was 20.0.
`Cn1cc(S(=O)(=O)N2CCOCC2)cc1C(=O)NC(=O)CCl` [compound 11] was tested, and the “isoTOP-ABPP ratio, cysteine Q9Y5Y2_C72” value ([1]; 100 μM in situ 231) was 0.5, the “isoTOP-ABPP ratio Q8WWI1_C228” value ([6]; 100 μM in situ 231) was 1.3 and the “isoTOP-ABPP ratio P19447_C342” value ([5]; 100 μM in situ 231) was 0.7. For the same molecule, the “isoTOP-ABPP ratio, cysteine Q15398_C129” value ([3]; 100 μM in situ 231) was 0.6.
For `O=C(CCl)NC(=O)NC12CC3CC(CC(C3)C1)C2` [compound 12], the “isoTOP-ABPP ratio Q8N1F7_C522” value [4]; 231 was 20.0, the “isoTOP-ABPP ratio Q8WWI1_C228” value ([6]; 200 μM, insitu, 231) was 20.0 and the “isoTOP-ABPP ratio, cysteine P53634_C258” value ([2]; 200 μM, insitu, 231) was 13.4. For the same molecule, the “isoTOP-ABPP ratio P19447_C342” value ([5]; 200 μM, insitu, 231) was 6.7.
`O=C(CCl)NCCc1c[nH]c2ccccc12` [compound 13] was tested, and the “isoTOP-ABPP ratio, cysteine Q9Y5Y2_C72” value ([1]; 200 μM, insitu, ramos) was 1.5, the “isoTOP-ABPP ratio Q8N1F7_C522” value ([4]; ramos) was 2.2 and the “isoTOP-ABPP ratio Q8WWI1_C228” value ([6]; 200 μM, insitu, 231) was 2.0. For the same molecule, the “isoTOP-ABPP ratio Q8WWI1_C228” value ([6]; 200 μM, insitu, ramos) was 1.0, the “isoTOP-ABPP ratio, cysteine P53634_C258” value ([2]; 200 μM, insitu, 231) was 1.6 and the “isoTOP-ABPP ratio P19447_C342” value ([5]; 200 μM, insitu, 231) was 1.1.
With `O=C(CCl)NC12CC3CC(CC(C3)C1)C2` [compound 21] the “isoTOP-ABPP ratio Q8WWI1_C228” value ([6]; 200 μM, insitu, 231) was 1.1, the “isoTOP-ABPP ratio, cysteine P53634_C258” value ([2]; 200 μM, insitu, 231) was 2.8 and the “isoTOP-ABPP ratio P19447_C342” value ([5]; 200 μM, insitu, 231) was 2.0.
For `CC(C)CCOCCNC(=O)CCl` [compound 27], the “isoTOP-ABPP ratio Q8WWI1_C228” value ([6]; 200 μM, insitu, 231) was 0.8 and the “isoTOP-ABPP ratio Q15398_C129” value ([3]; 200 μM, insitu, 231) was 0.5.
`O=C(CCl)N1CCN(CC(=O)N2CCOCC2)CC1` [compound 29] was tested, and the “isoTOP-ABPP ratio Q9Y5Y2_C72” value ([1]; 200 μM, insitu, ramos) was 1.1, the “isoTOP-ABPP ratio Q8N1F7_C522” value ([4]; ramos) was 1.7 and the “isoTOP-ABPP ratio Q8WWI1_C228” value ([6]; 200 μM, insitu, ramos) was 1.0. The “isoTOP-ABPP ratio Q15398_C129” value ([3]; 200 μM, insitu, ramos) was 1.2.
`C=CC(=O)N(Cc1cccnc1)c1cc(C(F)(F)F)cc(C(F)(F)F)c1` [compound 31] was tested, and the “isoTOP-ABPP ratio Q8N1F7_C522” value ([4]; ramos) was 3.6 and the “isoTOP-ABPP ratio Q15398_C129” value ([3]; 200 μM, insitu, ramos) was 2.4.
For `C=CC(=O)Nc1cc(F)c(N2CCN(C(=O)OC(C)(C)C)CC2)c(F)c1` [compound 38], the “isoTOP-ABPP ratio Q9Y5Y2_C72” value ([1]; 200 μM, insitu, 231) was 1.7, the “isoTOP-ABPP ratio Q8N1F7_C522” value [4]; 231 was 1.7 and the “isoTOP-ABPP ratio P19447_C342” value ([5]; 200 μM, insitu, 231) was 1.0. The “isoTOP-ABPP ratio Q15398_C129” value ([3]; 200 μM, insitu, 231) was 1.4.
With `Cc1ccc(C=C(C#N)C(=O)NCCN2CCOCC2)cc1` [compound 41] the “isoTOP-ABPP ratio Q8N1F7_C522” value [4]; 231 was 0.8, the “isoTOP-ABPP ratio Q8WWI1_C228” value ([6]; 200 μM, insitu, 231) was 0.8 and the “isoTOP-ABPP ratio P19447_C342” value ([5]; 200 μM, insitu, 231) was 0.7.
In the case of `CC1CCc2ccccc2N1C(=O)CCl` (centres unmarked) [compound 45], the “isoTOP-ABPP ratio Q8N1F7_C522” value [4]; 231 was 20.0, the “isoTOP-ABPP ratio Q8WWI1_C228” value ([6]; 200 μM, insitu, 231) was 20.0 and the “isoTOP-ABPP ratio P19447_C342” value ([5]; 200 μM, insitu, 231) was 5.9.
With `O=C(CCl)Nc1cccc2ncccc12` [compound 51] the “isoTOP-ABPP ratio Q15398_C129” value ([3]; 200 μM, insitu, 231) was 7.4.
